This is an account of results in patent US20050222076A1, “Composition for cell proliferation” (OTSUKA PHARMACEUTICAL CO., LTD., priority 2002, published 2005).

The test concerns human keratinocyte. Description: In vitro cultured human keratinocyte cell proliferation promoting effect (WST-1). It is filed as cell-based. The note with it: primary-cultured human keratinocyte, cultured two days; AMP 0-1 w/v % combined with UMP 0.000001-0.1 w/v %; versus comparative sample without uridine monophosphate disodium set as 1; FIG. 1. As for the experimental part:
Primary-cultured human keratinocyte (manufactured by Kurabo Industries, Ltd.) was cultured in a 10-cm petri dish, and the cultured cells were collected in the subconfluent state and then stored in a frozen state. The following experiments were conducted using those cryopreserved cells.
1. The cryopreserved cells were dissolved in HuMediaKG2 liquid culture media (manufactured by Kurabo Industries, Ltd.), the cell concentration was adjusted to […]. 50 μl of thus obtained cells-containing solution was poured into each well of a test plate to adjust the cell concentration to 2500 cells/50 μl/well.
2. […]
3. […] The test samples contained solutions at various concentrations prepared by blending uridine monophosphate disodium to adenosine monophosphate disodium solutions in which the concentration of adenosine monophosphate contained in the 300 μl of the test sample was adjusted to 0, 0.0001, 0.001, 0.01, 0.1, and 1 W/V %, so that the concentration of uridine monophosphate disodium was adjusted to 0, 0.000001 (1E-06), 0.00001 (1E-05), 0.0001, 0.001, 0.01 and 0.1 w/v % as calculated based on the concentration of the uridine monophosphate.
4. Two days after culture initiation, the proliferation of human keratinocyte cells was measured using a WST-1 reagent (manufactured by TaKaRa) based on the rise in absorbance. […]
(Tetrazolium assays rely on reduction of a dye to a coloured formazan, in cell work by metabolically active cells.)

Regarding `Nc1ncnc2c1ncn2[C@@H]1O[C@H](COP(=O)([O-])[O-])[C@@H](O)[C@H]1O.[Na+].[Na+]` [adenosine monophosphate disodium], the “cell proliferation promoting effect of adenosine monophosphate disodium when blended with uridine monophosphate disodium (relative ratio of number of cells, ratio of cont.)” value is “potentiated and promoted”.
As for `O=c1ccn([C@@H]2O[C@H](COP(=O)([O-])[O-])[C@@H](O)[C@H]2O)c(=O)[nH]1.[Na+].[Na+]` [uridine monophosphate disodium], the “cell proliferation promoting effect of adenosine monophosphate disodium when blended with uridine monophosphate disodium (relative ratio of number of cells, ratio of cont.)” value was “potentiated and promoted”.
